# Data: patent US20140288102A1, “PREVENTION OF RECURRENCES OF URETHRAL STRICTURES FOLLOWING CONVENTIONAL THERAPY” (priority 2007, published 2014)
# Where “and” joins values, the source holds several entries; their conditions need not be identical. Identical values can stand only once. Entries after “also recorded” stand apart in the source; their conditions may differ.
# What was measured:
# New Zealand male rabbits [1] = assay: Prevention of the onset of urethral strictures after electrocoagulation of the bulbar urethra (Example 1); type: in vivo, rabbit
# Experimental: Near-circumferential, 15 mm long electrocoagulation of the bulbar urethra was performed endoscopically on 20 New Zealand male rabbits using a pediatric resectoscope and a round-ended electrocautery. The rabbits were randomized into 2 groups of 10 animals each. The first group received a diet containing 10 mg/kg of Halofuginone initiated 4 days before electrocoagulation and continued for 3 weeks. The second group received a standard chow, free of Halofuginone. Three weeks after electrocoagulation, the rabbits were examined by video urethrocystoscopy and retrograde urethrocystography and subsequently sacrificed for histological examination. The urethra was removed in one piece and fixed in 10% buffered formaldehyde. The histological examination was performed after the specimens were embedded in paraffin and stained with Masson trichrome, hematoxylin-eosin, and Sirius Red (IMEB, Inc., Chicago, Ill.) in order to evaluate fibrosis. With the latter staining method, collagen appears in red.
# New Zealand male rabbits [2] = assay: Prevention of the recurrence of urethral strictures following endoscopic internal urethrotomy (Example 2); type: in vivo, rabbit
# Experimental: Near-circumferential, 15 mm long electrocoagulation of the bulbar urethra was performed endoscopically on 48 New Zealand male rabbits using a pediatric resectoscope and a round-ended electrocautery. Three weeks after electrocoagulation, the urethral strictures were evaluated using video urethrocystoscopy and retrograde urethrocystography. […] The urethral lumen was reduced by 70-95% (mean 88.5%). The obtained strictures were 7 to 19 mm in length (mean 11.7). Endoscopic internal urethrotomy was performed on all surviving rabbits using a cold knife, under visual guidance with a 0.028-inch diameter endoscopic guidewire. A single deep incision was made at the 12 o'clock position in all animals. The rabbits were subsequently randomized into 2 groups: one study group receiving Halofuginone for 10 weeks starting on the day of the urethrotomy, and one control group without Halofuginone. The study group was fed on a diet containing 10 mg/kg of Halofuginone, whereas the control group received a normal, Halofuginone-free diet. The rabbits were then monitored and evaluated for urethral strictures if any of the following signs appeared: decrease in 24-hour urine output, anorexia, worsening of general health status with palpable bladder distension. In the absence of any of these signs, the animals were systematically evaluated for urethral strictures 10 weeks after urethrotomy. This evaluation was performed using video urethrocystoscopy and retrograde urethrocystography. Thereafter, the rabbits were sacrificed for histological examination. The entire urethra was removed and fixed in 10% buffered formaldehyde. The histological examination was performed after the specimens had been embedded in paraffin and stained with Masson trichrome, hematoxylin-eosin, and Sirius Red (IMEB, Inc., Chicago, Ill.) in order to evaluate fibrosis. With the latter staining method, collagen appears in red.
# [3] = the 2 treated rabbits with significant stricture, 3 weeks after electrocoagulation
structure (smiles),measurement,setting,value
O=C(CC1NCCC[C@H]1O)Cn1cnc2cc(Br)c(Cl)cc2c1=O (stereo partly drawn) [Halofuginone],Nr. of urethral strictures (rabbits with significant urethral stricture),"New Zealand male rabbits [1]; 10 rabbits, diet containing 10 mg/kg Halofuginone from 4 days before electrocoagulation, continued 3 weeks, evaluated at 3 weeks, control 10 of 10, p<0.001",2
same,number of rabbits with normal urethra,"New Zealand male rabbits [1]; of 10 treated rabbits, 3 weeks after electrocoagulation",6
same,length of the significant strictures,New Zealand male rabbits [1]; [3],10 mm and 8 mm
same,reduction in urethral lumen caliber in the significant strictures,New Zealand male rabbits [1]; [3],70% and 90%
same,histological study of the urethra (fibrosis),New Zealand male rabbits [1]; treated rabbits without significant stricture,"only focal alterations, with limited areas of fibrosis alternating with subnormal or normal urethral walls"
same,narrowing of the urethral lumen,"New Zealand male rabbits [1]; two other treated rabbits, 3 weeks after electrocoagulation",less than 30%
same,retrograde urethrocystogram of the bulbar urethra,"New Zealand male rabbits [2]; a rabbit of the study group, 10 weeks after internal urethrotomy, FIG. 2B",no recurrent stricture was seen
same,"Post-urethrotomy recurrent stricture, Nr./total Nr.","New Zealand male rabbits [2]; diet containing 10 mg/kg Halofuginone for 10 weeks from day of urethrotomy, control 14/19, P 0.005",5/18
same,Post-urethrotomy recurrent stricture (%),"New Zealand male rabbits [2]; diet containing 10 mg/kg Halofuginone for 10 weeks from day of urethrotomy, control 73, P 0.005",27%
same,Nr. according to extent of histological fibrosis: Moderate to severe,"New Zealand male rabbits [2]; of 18 rabbits, control 2 of 19",1
same,Nr. according to extent of histological fibrosis: Mild or absent,"New Zealand male rabbits [2]; of 18 rabbits, control 5 of 19",13
same,Nr. according to extent of histological fibrosis: Severe,"New Zealand male rabbits [2]; of 18 rabbits, control 12 of 19",4
same,histological study of the site of the prior urethrotomy (fibrosis),"New Zealand male rabbits [2]; rabbits with no recurrence of stricture, FIG. 3",no fibrosis or minimal fibrosis; also recorded: minimal fibrosis
same,"Post-urethrotomy recurrent stricture, average length","New Zealand male rabbits [2]; recurrent strictures in Halofuginone group, control 11.4",7.2 mm
same,"Post-urethrotomy recurrent stricture, average reduction of lumen","New Zealand male rabbits [2]; recurrent strictures in Halofuginone group, control 82.9",92%
same,number of rabbits with recurrent stricture diagnosed at the 10-week evaluation,New Zealand male rabbits [2]; study group,2
same,number of rabbits that developed no recurrence of urethral stricture,"New Zealand male rabbits [2]; study group, 18 evaluable rabbits",13
same,number of rabbits with recurrence suspected on clinical signs and confirmed radiologically and endoscopically,"New Zealand male rabbits [2]; study group, before the 10-week evaluation",3
